Test results from the supplement of paper PMC10307832.

Assays:
Assay in all cases: relative viability (nuclei count vs DMSO), 5 days (fraction); higher = more cells survive
Shikonin + Pemetrexed = compound: CC(C)=CC[C@@H](O)C1=CC(=O)c2c(O)ccc(O)c2C1=O [Shikonin] + Nc1nc2[nH]cc(CCc3ccc(C(=O)N[C@@H](CCC(=O)O)C(=O)O)cc3)c2c(=O)[nH]1 [Pemetrexed] (partner 0.2 µM)
Procedure, shortened: (§1)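 Lung cancer cell lines in 1536-well plates were dosed by pin tool the day after seeding, either with one drug alone or with a fixed anchor-drug dose plus five library-drug doses (not always all listed) in √10 steps. After 5 days, cells were fixed and their nuclei stained in one step (final 0.05% Triton X-100, 1% formaldehyde, 1 ug/ml Hoechst), then counted on 4× images. Relative viability is the nuclei count in treated wells divided by that in vehicle wells. Values are medians of duplicate plates.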

[1] = compound: CC(C)N(CCCNC(=O)Nc1ccc(C(C)(C)C)cc1)C[C@H]1O[C@@H](n2ccc3c(N)ncnc32)[C@H](O)[C@@H]1O + Nc1ncn([C@H]2C[C@H](O)[C@@H](CO)O2)c(=O)n1 [Decitabine] (partner 2 µM)
Procedure, shortened: as §1

[2] = compound: CC(C)N(CCCNC(=O)Nc1ccc(C(C)(C)C)cc1)C[C@H]1O[C@@H](n2ccc3c(N)ncnc32)[C@H](O)[C@@H]1O + O=C(c1cc(Cc2n[nH]c(=O)c3ccccc23)ccc1F)N1CCN(C(=O)C2CC2)CC1 [Olaparib] (partner 8 µM)
Procedure, shortened: as §1

[3] = compound: CC(C)N(CCCNC(=O)Nc1ccc(C(C)(C)C)cc1)C[C@H]1O[C@@H](n2ccc3c(N)ncnc32)[C@H](O)[C@@H]1O + COc1cccc2cc(-c3nc([C@H]4CC[C@H](C(=O)O)CC4)n4ncnc(N)c34)[nH]c12 [OSI-027] (partner 0.5 µM)
Procedure, shortened: as §1

| Cell Line | relative viability (Shikonin + Pemetrexed; first compound 0.01 µM) | relative viability (Shikonin + Pemetrexed; first compound 0.1 µM) | relative viability (Shikonin + Pemetrexed; first compound 0.3162 µM) | relative viability (Shikonin + Pemetrexed; first compound 1 µM) | relative viability ([1]; first compound 0.08 µM) | relative viability ([1]; first compound 0.253 µM) | relative viability ([1]; first compound 0.8 µM) | relative viability ([1]; first compound 2.53 µM) | relative viability ([1]; first compound 8 µM) | relative viability ([2]; first compound 0.08 µM) | relative viability ([2]; first compound 0.253 µM) | relative viability ([2]; first compound 0.8 µM) | relative viability ([2]; first compound 2.53 µM) | relative viability ([2]; first compound 8 µM) | relative viability ([3]; first compound 0.08 µM) | relative viability ([3]; first compound 0.253 µM) | relative viability ([3]; first compound 0.8 µM) | relative viability ([3]; first compound 2.53 µM) | relative viability ([3]; first compound 8 µM) |
| --- | --- | --- | --- | --- | --- | --- | --- | --- | --- | --- | --- | --- | --- | --- | --- | --- | --- | --- | --- |
| HCC-44 | 0.652 | 0.678 | 0.667 | 0.637 | 0.979 | 1.01 | 0.714 | 0.966 | 0.915 | 1 | 1.03 | 0.981 | 1 | 0.972 | 0.507 | 0.509 | 0.432 | 0.572 | 0.552 |
| HCC-827 | 0.23 | 0.283 | 0.234 | 0.259 | 0.322 | 0.325 | 0.315 | 0.304 | 0.38 | 0.63 | 0.706 | 0.562 | 0.616 | 0.488 | 0.699 | 0.838 |  | 0.722 | 0.665 |
| NCI-H1623 |  |  |  |  |  |  |  |  |  |  |  |  |  |  | 0.446 | 0.469 | 0.529 | 0.422 | 0.437 |
| NCI-H2405 | 1.05 | 1.31 | 1.06 | 1.13 | 0.723 | 0.748 | 0.741 | 0.745 | 0.708 | 0.854 | 0.906 | 0.755 | 0.961 | 0.842 | 0.626 | 0.678 | 0.684 | 0.668 | 0.592 |
| RERF-LC-KJ | 0.47 | 0.512 | 0.465 | 0.549 | 0.703 | 0.685 | 0.715 | 0.639 | 0.693 | 0.887 | 1.04 | 0.843 | 1 | 0.963 | 0.551 | 0.624 | 0.679 | 0.529 | 0.453 |
| NCI-H1651 | 0.631 | 0.748 | 0.606 | 0.652 | 0.611 | 0.534 | 0.589 | 0.611 | 0.539 | 0.174 | 0.197 | 0.17 | 0.185 | 0.173 | 0.671 | 0.556 | 0.653 | 0.811 | 0.77 |
| HARA | 0.265 | 0.306 | 0.255 | 0.24 | 0.556 | 0.545 | 0.62 | 0.457 | 0.495 | 0.844 | 0.737 | 0.764 | 0.538 | 0.494 | 0.454 | 0.536 | 0.621 | 0.568 | 0.375 |
| NCI-H1650 | 0.35 | 0.403 | 0.331 | 0.274 | 0.368 | 0.482 | 0.262 | 0.432 | 0.357 | 0.662 | 0.922 | 0.805 | 0.642 | 0.754 | 0.567 | 0.696 |  | 0.744 | 0.703 |
| NCI-H1395 | 0.84 | 0.944 | 0.85 | 1.01 | 0.711 | 0.704 | 0.76 | 0.748 | 0.662 | 0.496 | 0.443 | 0.405 | 0.464 | 0.438 | 0.67 | 0.631 | 0.57 | 0.62 | 0.719 |
| NCI-H520 | 0.801 | 0.784 | 0.689 | 0.604 | 0.531 | 0.469 | 0.405 | 0.471 | 0.492 | 0.303 | 0.389 | 0.356 | 0.331 | 0.333 | 0.181 | 0.248 | 0.235 | 0.348 | 0.267 |
| LU99A | 0.174 | 0.206 | 0.191 | 0.199 | 0.802 | 0.92 | 0.895 | 0.919 | 0.991 | 0.322 | 0.252 | 0.264 | 0.275 | 0.237 | 0.317 | 0.327 | 0.329 | 0.377 | 0.254 |
| NCI-H1355 | 1.13 | 1.15 | 1.02 | 1.06 | 0.338 | 0.342 | 0.414 | 0.335 | 0.342 | 0.695 | 0.776 | 0.667 | 0.754 | 0.716 | 0.375 | 0.473 | 0.374 | 0.472 | 0.428 |
| HCC-78 | 0.91 | 0.844 | 0.941 | 0.893 | 0.783 | 0.667 | 0.667 | 0.707 | 0.777 | 0.885 | 0.734 | 0.691 | 0.792 | 0.804 | 0.376 | 0.388 | 0.356 | 0.364 | 0.346 |
| NCI-H1563 | 0.769 | 0.846 | 0.897 | 0.845 |  |  |  |  |  |  |  |  |  |  | 0.742 | 0.782 | 0.73 | 0.713 | 0.799 |
| HCC-15 | 0.228 | 0.225 | 0.233 | 0.213 | 0.655 | 0.592 | 0.65 | 0.646 | 0.544 | 0.669 | 0.754 | 0.702 | 0.758 | 0.709 | 0.641 | 0.815 | 0.6 | 0.812 | 0.655 |
| EKVX | 0.438 | 0.435 | 0.472 | 0.362 | 0.342 | 0.339 | 0.327 | 0.36 | 0.351 | 0.818 | 0.83 | 0.67 | 0.803 | 0.752 | 0.718 | 0.713 | 0.71 | 0.704 | 0.668 |
| NCI-H2126 | 0.758 | 0.716 | 0.777 | 0.656 | 0.568 | 0.591 | 0.557 | 0.551 | 0.508 | 0.873 | 0.932 | 0.901 | 0.883 | 0.778 | 0.627 | 0.77 | 0.734 | 0.715 | 0.672 |
| LK-2 | 0.311 | 0.3 | 0.306 | 0.266 | 0.308 | 0.293 | 0.388 | 0.325 | 0.22 | 0.713 | 0.544 | 0.771 | 0.632 | 0.82 | 0.235 | 0.277 | 0.215 | 0.236 | 0.213 |
